Measured values: US20130303575A1, “ADMINISTRATION OF AN INHIBITOR OF HDAC” (priority 2007, published 2013)
Entries after “also recorded” stand apart in the source; their conditions may differ.

Key:
acetylated histone H3 = experiment: Immunocytochemical analysis of acetylated histone H3 in PBMCs (Example 2); type: in vivo, human
Description: Louis, Mo.) for 10 minutes at room temperature, rinsed quickly with water, air-dried, mounted using SlowFade (Molecular Probes), and imaged using a Zeiss Axiophot microscope interfaced with a CCD camera (Optronics Engineering, Goleta, Calif.). Positive controls were prepared by exposing healthy donor PBMCs to SNDX-275 in vitro. Buffy coats, provided anonymously as a byproduct of whole-blood donations from paid, healthy volunteer donors through an international review board-approved protocol, were centrifuged on Ficoll-Paque Plus. […] Cells were processed for histone hyperacetylation in the same manner as patient samples. Images of PBMCs stained for acetylated histone H3 were imported into the Openlab image analysis program (Improvision, Coventry, United Kingdom) and histone acetylation levels were assessed using the Openlab quantification software.

[1] = system: advanced solid tumors or lymphomas; experiment: Response evaluation in patients with advanced solid tumors or lymphoma (Example 2); type: in vivo, human
Description: At study entry, history, physical examination, laboratory studies (CBC, electrolytes, creatinine, blood urea nitrogen, total and direct bilirubin, ALT, AST, alkaline phosphatase, uric acid, prothrombin time, partial thromboplastin time, and urinalysis), computed tomography scan and chest x-ray and ECG were performed. Clinical assessments, including a physical examination and adverse event evaluation, were conducted at each follow-up. Adverse events were graded by the NCI Common Toxicity Criteria (version 2.0). Computed tomography scans and staging was performed every 6 weeks for the q14-day schedule. Disease-specific staging techniques, such as bone marrow aspirate and biopsy, flow cytometry, cutaneous lesion photography, or bone scan were used as indicated. Response evaluations used the Response Evaluation Criteria in Solid Tumors and the Cheson criteria for lymphoma. Multiple-gated acquisition (MUGA) scans were obtained on the q14-day schedule at base line, before course 2 and at each restaging. Laboratory studies (CBC with differential, chemistry 20, prothrombin time and […] thromboplastin time) were performed on days 1, 3, 5, 7 and repeated weakly.

advanced acute leukemias = experiment: Clinical outcome and biologic effects in adults with advanced acute leukemias (Example 3); type: in vivo, human
Description: To assess response to therapy, a BM aspiration was performed weekly for 4 weeks during the first cycle, at the end of each subsequent cycle, or at any time leukemia regrowth was suspected. Complete response (CR) required a normal BM aspirate with absence of identifiable leukemia, absolute neutrophils count (ANC) of 1×10^9/L or higher, platelet count of 100×10^9/L or higher, and absence of blasts in peripheral blood (PB). […] Progressive disease (PD) was defined as >50% increase in marrow or PB blasts from baseline or development of extramedullary leukemia.

[2] = system: histone H3, H4 and protein acetylation; experiment: Histone H3, H4 and protein acetylation, p21 and caspase-3 in PBMCs and BMMCs (Example 3); type: in vivo, human
Description: Serial marrow and/or peripheral blood cells were collected at weekly intervals to examine PAMC-induced changes in histone acetylation.
Changes in histone H3, H4 and protein acetylation (immunocytochemistry, multiparameter flow cytometry and western blot analysis.) Immunocytochemical analysis of histone H3 was performed on bone marrow mononuclear cells (BMMCs) as described previously. The multiparameter flow cytometric analysis of protein acetylation versus caspase-3 activation was performed on serial BM aspirates using monoclonal anti-acetylated lysine antibody (Cell Signaling Technology, Beverly, Mass.) followed by FITC-conjugated goat anti-mouse antibody (Caltag Laboratories, Burlingame, Calif.) and polyclonal PE-conjugated anti-caspase-3, active form antibody (BD Pharmingen, Sand Diego, Calif.). The analysis of protein acetylation versus p21 expression or CD 34 expression was performed using polyclonal anti-acetylated lysine antibody (Cell Signaling Technology) versus monoclonal anti-p21 antibody (BD Transduction Laboratories, San Jose, Calif.) or monoclonal anti-CD34 antibody (BD Pharmingen). Primary antibodies were detected using PE-conjugated goat anti-mouse and FITC-conjugated goat anti-rabbit antibodies (Caltag Laboratories). For staining, BMMCs were isolated using Ficoll-Paque Plus (Amersham Biosciences, Piscataway, N.J.) fixed in 0.4% paraformaldehyde, permeabilized with 0.4% Triton X-100, incubated with primary antibodies for 1 hour at room temperature, washed, incubated with secondary antibodies for 1 hour, washed and analyzed on a FACSCalibur flow cytometer (Becton Dickinson, San Jose, Calif.) using CellQuest software for acquisition and FloJo software for analysis.
For western blot analysis of histone acetylation, PBMCs and BMMCs were isolated using Ficoll-Paque Plus (Amersham Biosciences). Histones from the cells were prepared as follows: Cells were washed in 2 ml HBSS and disrupted by a 1 mL ice-cold lysis buffer A (10 mM Tris pH 7.6, 5 mM butyric acid, 1% Triton X-100, 1 mM MgCl2, and 1 mM PMSF). Nuclei were collected by centrifugation at 14,000 rpm for 15 min. The pellet was resuspended once with 250 μL ice-cold lysis buffer B (10 mM Tris pH 7.6, 0.25 M Sucrose, 3 mM CaCl2 and 5 mM butyric acid). Sulfuric acid was added to a concentration of 0.4 N and the tubes were incubated at 4° C. overnight. Debris was pelleted by centrifugation, and the supernatant was collected. Histones were precipitated by addition of 10 volumes of acetone and incubation at −20° C. overnight. Pellets were collected by centrifugation, briefly dried under vacuum and resuspended with dH2O. The total protein content was determined by a bicinchoninic acid assay kit (Pierce, Rockford, Ill.). The proteins 10-30 μg were separated by 15% SDS PAGE and visualized using the antibodies for acetyl-histone H3, acetyl-histone H4, and histone H2A, all from Upstate Biotechnologies (Lake Placid, N.Y.). The immunoreactive proteins were detected using ECL western blotting analysis system (Amersham Biosciences). Radiographic films of histone acetylation were scanned and digitized (UN-SCAN-IT), Silk Scientific, UT).

[3] = PK of SNDX-275 in patients with metastatic melanoma (Example 4); conditions: human, in vivo; for Cmax: 7 mg
Description: The concentration after 8 hours after the dose was approximately 2 ng/mL.

## Nc1ccccc1NC(=O)c1ccc(CNC(=O)OCc2cccnc2)cc1 [SNDX-275, N-(2-aminophenyl) 4-[N-(pyrid-3-yl)methyloxycarbonylaminomethyl]benzamide]
Acetylated histone H3; apparent at all dose levels, immunofluoresence analysis
  histone H3 acetylation in peripheral-blood mononuclear-cells: Increased histone H3 acetylation
Acetylated histone H3; daily schedule patients
  histone H3 and H4 acetylation (HDAC inhibition): HDAC inhibition occurred after one dose
[1]; human, in vivo
  patients remaining on treatment for greater than 3 months: Ten of 29
[1]; q14-day schedule
  objective responses: not observed
  patients with stable disease: 15
Advanced acute leukemias; 34 patients evaluable for response
  CR or PR by standard criteria: No patients achieved CR or PR
Advanced acute leukemias; Fifteen patients
  patients with a 50% reduction in WBC counts: 38.5%
Advanced acute leukemias; patient 2, 4 mg/m^2 × 2/4 weeks, 4 cycles, bone marrow blast response
  Type of Response: Bone marrow PR (>50% → 12% blasts, cycle 1)
Advanced acute leukemias; patient 2, 4 mg/m^2 × 2/4 weeks, 4 cycles, myeloid differentiation by ANC
  Type of Response: Differentiation in myeloid lineage (ANC 504/μL →
Advanced acute leukemias; patient 2, 4 mg/m^2 × 2/4 weeks, cycle 1, from ANC 504/μL
  ANCmax: ANCmax 1410/μL, cycle 1)
Advanced acute leukemias; patient 5, 4 mg/m^2 × 2/4 weeks (cycle 1), 6 mg/m^2 × 2/4 weeks (cycle 2 and 3), 3 cycles
  Type of Response: Stable disease
Advanced acute leukemias; patient 11, 8 mg/m^2 × 2/4 weeks, 1 cycle
  Type of Response: Decreased transfusion requirements
Advanced acute leukemias; patient 14, 8 mg/m^2 × 4/6 weeks, 1 cycle
  Type of Response: Resolution of bone pain
Advanced acute leukemias; patient 15, 8 mg/m^2 × 4/6 weeks, 1.75 cycles, bone marrow blast response
  Type of Response: Bone marrow PR (35% → 14% blasts, cycle 1)
Advanced acute leukemias; patient 15, 8 mg/m^2 × 4/6 weeks, 1.75 cycles, myeloid differentiation by ANC
  Type of Response: Differentiation in myeloid lineage (ANC 288/μL →
Advanced acute leukemias; patient 15, 8 mg/m^2 × 4/6 weeks, cycle 1, from ANC 288/μL
  ANCmax: 2052 µL⁻¹
Advanced acute leukemias; patient 15, 8 mg/m^2 × 4/6 weeks, cycle 2
  ANCmax: 5546 µL⁻¹
Advanced acute leukemias; patient 18, 8 mg/m^2 × 4/6 weeks, 1.25 cycles
  Type of Response: Differentiation in myeloid lineage (ANC 124/μL →
Advanced acute leukemias; patient 18, 8 mg/m^2 × 4/6 weeks, cycle 1, from ANC 124/μL
  ANCmax: ANCmax 680/μL, cycle 1)
Advanced acute leukemias; patient 20, 8 mg/m^2 × 4/6 weeks, 1 cycle
  Type of Response: Decreased transfusion requirements
Advanced acute leukemias; patient 24, 8 mg/m^2 × 4/6 weeks, 4.75 cycles, bone marrow blast response
  Type of Response: Bone marrow PR (30% → 20% blasts, cycle 1)
Advanced acute leukemias; patient 24, 8 mg/m^2 × 4/6 weeks, 4.75 cycles, myeloid differentiation by ANC
  Type of Response: Differentiation in myeloid lineage (ANC 520/μL →
Advanced acute leukemias; patient 24, 8 mg/m^2 × 4/6 weeks, cycle 1, from ANC 520/μL
  ANCmax: 3637 µL⁻¹
Advanced acute leukemias; patient 24, 8 mg/m^2 × 4/6 weeks, cycle 3
  ANCmax: 4456 µL⁻¹
Advanced acute leukemias; patient 27, 8 mg/m^2 × 4/6 weeks, 5 cycles
  Type of Response: Stable disease; also recorded: Peripheral blood 21% → 0% blasts
Advanced acute leukemias; patient 33, 10 mg/m^2 × 4/6 weeks, 2 cycles
  Type of Response: Resolution of extramedullary chloroma
Advanced acute leukemias; patient 34, 10 mg/m^2 × 4/6 weeks, 2 cycles, bone marrow blast response
  Type of Response: Bone marrow CR (54% → 3% blasts, cycle 1)
Advanced acute leukemias; patient 34, 10 mg/m^2 × 4/6 weeks, 2 cycles, myeloid differentiation by ANC
  Type of Response: Differentiation in myeloid lineage (ANC 103/μL →
Advanced acute leukemias; patient 34, 10 mg/m^2 × 4/6 weeks, cycle 1, from ANC 103/μL
  ANCmax: 854 µL⁻¹
Advanced acute leukemias; patient 34, 10 mg/m^2 × 4/6 weeks, cycle 2
  ANCmax: 2929 µL⁻¹
Advanced acute leukemias; range 3-28
  median time to 50% reduction in WBC counts: 6 days
[2]; PBMCs and BMMCs, 8 patients at DL 4 and 1 patient at DL 5
  histone H3 and H4 acetylation by western blotting: increase in histone H3 and H4 acetylation
[2]; bone marrow mononuclear cells
  protein and H3/H4 acetylation, p21 expression, caspase-3 activation: increase in protein and H3/H4 acetylation, p21 expression, and caspase-3 activation
[2]; flow cytometric analysis
  specimens with caspase-3 activation: 67%
[2]; following SNDX-275 treatment, 4 patients with early PB specimens
  time at which increase in histone H3 and H4 acetylation was evident: 8 to 12 h
[2]; in vivo
  persistence of histone acetylation following last SNDX-275 administration: 2-3 weeks
[2]; lowest dose level
  histone H3 acetylation by immunocytochemistry: increase in histone H3 acetylation
[3]; day 1 of cycle 1
  Cmax: 0.0185 µg/mL
[3]; day 1 of cycle 2
  Cmax: 0.0233 µg/mL
[3]; 7 mg dose, read-out: concentration 8 hours after the dose
  concentration at 8 h: ~0.002 µg/mL
